According to patent US20240293551A1, “USE OF ST-TYPE LIPID COMPOUNDS IN PREPARATION OF NUCLEIC ACID DELIVERY REAGENT AND RELATED PRODUCT” (INSTITUTE OF BASIC MEDICAL SCIENCES CHINESE ACADEMY OF …, priority 2021, published 2024):

Test system: PGY-sRNA-26
Experiment: In vivo delivery study of lipid-nucleic acid mixture (oral gavage, RT-qPCR of PGY-sRNA-26 in tissues)
Set-up: species or system mouse
Conditions: for delivery efficacy over each tissue and blood tested (broad-spectrum delivery): all tissues and blood tested; for oral delivery of single-stranded sRNA nucleic acids into mouse intestinal tissue: intestine
Summary of the method: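 C57BL/6 male mice (~6 weeks, 20-24 g), fasted 12 h, were gavaged with 10 nmol 3′-methylated PGY-sRNA-26 mixed with 100 μg lipid (heated 90° C. 15 min), versus saline or free sRNA (n=4 each). After 12 h, blood and tissues were Trizol-extracted; sRNA quantified by stem-loop RT-qPCR relative to U6.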

[1] = C57BL/6 mice, gavage, 100 μg lipid: 10 nmol PGY-sRNA-26, 12 hours
[2] = C57BL/6 mice, gavage, 100 μg lipid: 10 nmol PGY-sRNA-26, 12 hours, brain

SMILES | delivery efficacy over each tissue and blood tested (broad-spectrum delivery) [1] | oral delivery of single-stranded sRNA nucleic acids into mouse blood [1] | oral delivery of single-stranded sRNA nucleic acids into mouse brain tissue [2] | oral delivery of single-stranded sRNA nucleic acids into mouse femur [1] | oral delivery of single-stranded sRNA nucleic acids into mouse heart tissue [1] | oral delivery of single-stranded sRNA nucleic acids into mouse intestinal tissue [1] | oral delivery of single-stranded sRNA nucleic acids into mouse kidney tissue [1] | oral delivery of single-stranded sRNA nucleic acids into mouse liver tissue [1] | oral delivery of single-stranded sRNA nucleic acids into mouse lung tissue [1] | oral delivery of single-stranded sRNA nucleic acids into mouse spleen tissue [1] | oral delivery of single-stranded sRNA nucleic acids into mouse stomach tissue [1] | oral delivery of single-stranded sRNA nucleic acids into mouse brain tissue (mouse, in vivo, po)
C=C1/C(=C\C=C2/CCC[C@]3(C)[C@@H]([C@H](C)/C=C/[C@@H](O)C4CC4)CC[C@@H]23)C[C@@H](O)C[C@@H]1O [Lipid 554] | exhibited the best delivery efficacy | can effectively orally deliver | can effectively orally deliver | can effectively orally deliver | can effectively orally deliver | can effectively orally deliver | can effectively orally deliver | can effectively orally deliver | can effectively orally deliver | can effectively orally deliver | can effectively orally deliver | –
C[C@]12CCC(=O)C=C1CC[C@@H]1[C@@H]2[C@@H](O)C[C@]2(C)C(=O)CC[C@@H]12 [Lipid 555] | exhibited the best delivery efficacy | can effectively orally deliver | can effectively orally deliver | can effectively orally deliver | can effectively orally deliver | can effectively orally deliver | can effectively orally deliver | can effectively orally deliver | can effectively orally deliver | can effectively orally deliver | can effectively orally deliver | –
CCCCC(=O)O[C@H]1CC[C@H]2[C@@H]3CCc4cc(O)ccc4[C@H]3CC[C@]12C [Lipid 556] | exhibited the best delivery efficacy | can effectively orally deliver | can effectively orally deliver | can effectively orally deliver | can effectively orally deliver | can effectively orally deliver | can effectively orally deliver | can effectively orally deliver | can effectively orally deliver | can effectively orally deliver | can effectively orally deliver | –
CC(=O)[C@@]1(O)CC[C@H]2[C@@H]3C[C@H](C)C4=CC(=O)CC[C@]4(C)[C@H]3CC[C@@]21C [Lipid 557] | exhibited the best delivery efficacy | can effectively orally deliver | – | can effectively orally deliver | can effectively orally deliver | can effectively orally deliver | can effectively orally deliver | can effectively orally deliver | can effectively orally deliver | can effectively orally deliver | can effectively orally deliver | can effectively orally deliver
C[C@@H]1CC[C@@]2(OC1)O[C@H]1C[C@H]3[C@@H]4CC[C@H]5C[C@@H](O)CC[C@]5(C)[C@H]4CC(=O)[C@]3(C)[C@H]1[C@@H]2C [Lipid 558] | exhibited the best delivery efficacy | can effectively orally deliver | can effectively orally deliver | can effectively orally deliver | can effectively orally deliver | can effectively orally deliver | can effectively orally deliver | can effectively orally deliver | can effectively orally deliver | can effectively orally deliver | can effectively orally deliver | –
C[C@]12CC[C@H](O)C[C@H]1CC[C@@H]1[C@@H]2CC[C@]2(C)[C@@H](C3=CC(=O)OC3)CC[C@]12O [Lipid 559] | exhibited the best delivery efficacy | can effectively orally deliver | can effectively orally deliver | can effectively orally deliver | can effectively orally deliver | can effectively orally deliver | can effectively orally deliver | can effectively orally deliver | can effectively orally deliver | can effectively orally deliver | can effectively orally deliver | –
C#C[C@]1(O)CC[C@H]2[C@@H]3CCC4=CC(=O)CC[C@@H]4[C@H]3CC[C@@]21CC [Lipid 560] | exhibited the best delivery efficacy | can effectively orally deliver | can effectively orally deliver | can effectively orally deliver | can effectively orally deliver | can effectively orally deliver | can effectively orally deliver | can effectively orally deliver | can effectively orally deliver | can effectively orally deliver | can effectively orally deliver | –
C[C@]12CC[C@H](O)CC1=CC[C@@H]1[C@@H]2CC[C@]2(C)C(=O)CC[C@@H]12 [Lipid 561] | – | can effectively orally deliver | – | can effectively orally deliver | – | – | – | – | – | – | – | –
C[C@]12CC[C@H]3[C@@H](CCC4=CC(=O)CC[C@@H]43)[C@@H]1CC[C@@H]2O [Lipid 562] | – | can effectively orally deliver | can effectively orally deliver | can effectively orally deliver | can effectively orally deliver | can effectively orally deliver | – | can effectively orally deliver | can effectively orally deliver | can effectively orally deliver | can effectively orally deliver | –
C[C@]12CC[C@@H](O)C[C@@H]1CC[C@@H]1[C@@H]2CC[C@]2(C)C(=O)CC[C@@H]12 [Lipid 563] | exhibited the best delivery efficacy | can effectively orally deliver | can effectively orally deliver | can effectively orally deliver | can effectively orally deliver | can effectively orally deliver | can effectively orally deliver | can effectively orally deliver | can effectively orally deliver | can effectively orally deliver | can effectively orally deliver | –
